The record followed here is PubChem BioAssay (NCI).

Structures are written as SMILES. “And” between values parts separate entries of the source, which are not always exact repeats. Equal values may be shown once.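 Results reflect a 48-hour exposure of cells in 96-well plates to compound at five concentrations. GI50 is the concentration that inhibits growth by half. TGI is the concentration that stops growth completely.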 Where a SMILES comes first, the peptide text is derived from it. [ ]: non-standard residue; d: D form. The star is where a group is joined. Phe(4-NO2) = N[CH](Cc1ccc([N+](=O)[O-])cc1)C(=O)O; Boc = CC(C)(C)OC(=O)*; OtBu = CC(C)(C)O*

Test systems include SNB-78 CNS; UACC-257 melanoma; SW-620 colon; SN12C renal; SK-MEL-28 melanoma; HS 578T breast; TK-10 renal; M14 melanoma; MDA-MB-435; MDA-N.
Common to all, as to assay: growth of human tumour cells (NCI), 48 h

Consider `CSc1nc2c(ncn2C2OCC(O)C(O)C2O)c(=O)[nH]1` (stereo not given), for which the TGI in the test with SNB-78 CNS, in the test on UACC-257 melanoma, in the test on SW-620 colon, in the test with SN12C renal and in the test on SK-MEL-28 melanoma was above 100 µM throughout.

Take `O=C(O)c1ccc(Nc2cnc3ccc(C(F)(F)F)cc3n2)cc1`: the TGI with HS 578T breast is 40 µM; with UACC-257 melanoma, 93.9 µM; in the test with SW-620 colon, 46.6 µM; with TK-10 renal, 44.8 µM; in the test with SN12C renal it was 90.2 µM; in the test with M14 melanoma it was above 100 µM. For the same compound, the TGI with SK-MEL-28 melanoma was above 100 µM; with MDA-MB-435, 72.3 µM; in the test on MDA-N, 37.3 µM.

`N#Cc1nnc2c3c(-c4ccc(Cl)cc4)c(C#N)c(=O)[nH]c3nn2c1N`: the TGI is 10.8 µM in the test on HS 578T breast; 38.5 µM in the test on UACC-257 melanoma; 32 µM in the test on SW-620 colon; above 100 µM in the test with TK-10 renal; 6.37 µM with SN12C renal; 21.7 µM with M14 melanoma. Besides, the values for the TGI in the test on SK-MEL-28 melanoma, with MDA-MB-435 and with MDA-N were 44.5 µM, 26.8 µM and 13.4 µM, respectively.

As for `COc1ccc(C[C@H]2COC(=O)[C@@H]2Cc2cc(OC)c(OC)c(OC)c2)cc1OC`, the TGI with HS 578T breast, in the test with UACC-257 melanoma, in the test on SW-620 colon, in the test on TK-10 renal, with SN12C renal and in the test on M14 melanoma was above 100 µM in each case. In addition, the TGI in the test with SK-MEL-28 melanoma, with MDA-MB-435 and in the test on MDA-N was above 100 µM each time.

With `CC(C)[Si]1(C(C)C)OCC2OC(n3cnc4c(N)ncnc43)C(N)C2O[Si](C(C)C)(C(C)C)O1` (stereo not given), the TGI was 44.5 µM with HS 578T breast; 32.4 µM in the test with UACC-257 melanoma; above 45.4 µM in the test on SW-620 colon; 28.9 µM in the test with TK-10 renal; 27.9 µM with SN12C renal; 26.3 µM in the test on M14 melanoma. For the same compound, the TGI is above 72.1 µM in the test on SK-MEL-28 melanoma, 30.7 µM in the test on MDA-MB-435 and 24.3 µM with MDA-N.

With `COC(=O)C(Cc1ccc([N+](=O)[O-])cc1)NC(=O)C(CC(=O)OC(C)(C)C)NC(=O)OC(C)(C)C` (stereo not given) (Boc-Asp(OtBu)-[Phe(4-NO2)]-OMe; configuration not given here), the TGI was 40.6 µM with HS 578T breast; above 100 µM in the test with UACC-257 melanoma; above 100 µM in the test on SW-620 colon; above 100 µM with TK-10 renal; above 100 µM in the test on SN12C renal; above 100 µM with M14 melanoma. In addition, the TGI was 57.4 µM with SK-MEL-28 melanoma, above 100 µM in the test on MDA-MB-435 and above 100 µM in the test on MDA-N.

Turning to `BrCC[P+](c1ccccc1)(c1ccccc1)c1ccccc1`, the TGI in the test on HS 578T breast was determined as 50.5 µM; in the test on UACC-257 melanoma, 16.5 µM; with SW-620 colon, 34.4 µM; in the test with TK-10 renal it was 34.5 µM; in the test with SN12C renal, 8.39 µM; in the test on M14 melanoma, 18 µM. For the same compound, the TGI was determined as 19.5 µM in the test with SK-MEL-28 melanoma, 10.8 µM in the test on MDA-MB-435 and 7.59 µM in the test with MDA-N.

Consider `CCOc1cc(C=O)ccc1O`, for which the TGI in the test with HS 578T breast, with UACC-257 melanoma, in the test on SW-620 colon, with TK-10 renal, in the test with SN12C renal and in the test on M14 melanoma was above 100 µM in each case. For the same compound, the TGI in the test with SK-MEL-28 melanoma, in the test with MDA-MB-435 and in the test with MDA-N was above 100 µM in each case.

On to `CC(=O)c1c(O)c(C)c(O)c2c1OC1=CC(=O)C(C(C)=O)C(=O)C12C` (stereo not given), for which the GI50 was 8.87 µM and 28.8 µM in the test on SNB-78 CNS; 6.02 µM and 30.4 µM in the test with UACC-257 melanoma; 6.44 µM and 27.5 µM in the test on SW-620 colon. The TGI in the test with SNB-78 CNS is 48.6 µM and 80.4 µM; with UACC-257 melanoma, 22.7 µM and 64.5 µM; in the test on SW-620 colon, 41.3 µM and 86 µM; in the test on SN12C renal, 8.95 µM and 50.1 µM; in the test on SK-MEL-28 melanoma, 40.9 µM and 22 µM.

Regarding `C=C1C(=O)C[C@@]23CCC[C@@]12CC(O)C3` (stereo not given in full), the TGI came out at 99 µM in the test with SNB-78 CNS; 52.3 µM in the test with UACC-257 melanoma; 37.2 µM in the test with SW-620 colon; 38.1 µM with SN12C renal; 49.8 µM in the test with SK-MEL-28 melanoma.

On to `NC(CO)c1ccccc1` (stereo not given), for which the TGI in the test on SNB-78 CNS, in the test on UACC-257 melanoma, in the test on SW-620 colon, in the test on TK-10 renal, in the test on M14 melanoma and in the test with SK-MEL-28 melanoma was above 100 µM each time.

As to `CN(Cc1nc2c(N)nc(N)nc2nc1N)c1ccc(C(=O)NC(CCC(=O)O)C(=O)O)cc1` (stereo not given), the TGI with HS 578T breast, in the test on UACC-257 melanoma, in the test on SW-620 colon, in the test on TK-10 renal, in the test on SN12C renal and with M14 melanoma was above 100 µM each time. In addition, the TGI in the test with SK-MEL-28 melanoma, with MDA-MB-435 and with MDA-N was above 100 µM throughout.

On to `COc1ccc(S(=O)(=O)Nc2ccc(-c3csc(N4C(=O)/C(=C/C=C\c5ccccc5)N=C4c4ccccc4)n3)cc2)cc1Cl`, for which the TGI was 85.5 µM in the test on HS 578T breast; above 100 µM with UACC-257 melanoma; above 100 µM with SW-620 colon; above 100 µM in the test with TK-10 renal; above 100 µM in the test on SN12C renal; 83.6 µM in the test with M14 melanoma. In addition, the TGI is above 100 µM in the test on SK-MEL-28 melanoma, 62 µM with MDA-MB-435 and 80.7 µM in the test with MDA-N.

As for `COc1cc2cc3c4c(cc(OC)c(OC)c4c2cc1OC)CCN3C(=O)OCCBr`, the TGI in the test on SNB-78 CNS, with UACC-257 melanoma, with SW-620 colon, with TK-10 renal, with SN12C renal and with SK-MEL-28 melanoma was above 100 µM throughout.

In the case of `COc1ccccc1OC/C(N=Cc1ccncc1)=N/NC(=O)c1ccncc1`, the TGI in the test with HS 578T breast, with UACC-257 melanoma, in the test with SW-620 colon, in the test on TK-10 renal, in the test with SN12C renal and in the test with M14 melanoma was above 100 µM in each case. For the same compound, the TGI in the test on SK-MEL-28 melanoma, in the test on MDA-MB-435 and in the test with MDA-N was above 100 µM in each case.
